Experimental data as given in ChEMBL document CHEMBL1201862, “PubChem BioAssay data set” (2004).
Calls of active or inactive are those of the source.

Legend:
[1] = biological target: T1, Endoribonuclease toxin MazF (Escherichia coli K-12, UniProt P0AE70); experiment: activation of MazEF endoribonuclease cleavage – biochemical, fluorescence, single-stranded RNA substrate, uHTS hits, dose response (AID 588481); format: functional
T1 sequence (P0AE70 whole entry): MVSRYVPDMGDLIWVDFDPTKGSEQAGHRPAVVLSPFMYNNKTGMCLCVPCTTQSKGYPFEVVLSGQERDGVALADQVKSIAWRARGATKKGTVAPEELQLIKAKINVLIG

[2] = biological target: T1, Endoribonuclease toxin MazF; experiment: substrate-only fluorescence increase artefacts – biochemical, single-stranded RNase substrate, counter-screen for MazEF activator project, dose response (AID 588502); format: functional
[3] = biological target: T2, Carboxy-terminal domain RNA polymerase II polypeptide A small phosphatase 1 (Homo sapiens, UniProt Q9GZU7); experiment: CTDSP1 inhibitors, concentration-response, biochemical, absorbance readout, ultra-high-throughput screen actives (AID 540297); format: functional
T2 sequence (Q9GZU7 whole entry): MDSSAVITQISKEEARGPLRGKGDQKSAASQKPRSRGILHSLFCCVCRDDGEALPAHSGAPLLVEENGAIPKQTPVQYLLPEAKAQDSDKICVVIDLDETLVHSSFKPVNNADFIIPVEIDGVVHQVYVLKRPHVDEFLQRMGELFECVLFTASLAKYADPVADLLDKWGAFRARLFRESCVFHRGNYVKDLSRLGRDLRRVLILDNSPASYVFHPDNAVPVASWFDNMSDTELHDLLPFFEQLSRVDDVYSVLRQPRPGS

[4] = biological target: T3, Low molecular weight phosphotyrosine protein phosphatase (Homo sapiens, UniProt P24666); format: functional; details: read-out: IC50_Mean
T3 sequence (P24666 whole entry): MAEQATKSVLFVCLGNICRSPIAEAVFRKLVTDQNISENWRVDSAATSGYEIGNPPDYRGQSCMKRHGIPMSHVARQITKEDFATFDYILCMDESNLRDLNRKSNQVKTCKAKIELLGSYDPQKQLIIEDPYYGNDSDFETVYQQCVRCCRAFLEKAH

[5] = biological target: T3, Low molecular weight phosphotyrosine protein phosphatase; format: functional; details: read-out: IC50_Mean; remark: listed apart in the source
[6] = biological target: T4, Tyrosine-protein phosphatase non-receptor type 22 (Homo sapiens, UniProt Q9Y2R2); experiment: PTPN22 enzyme inhibitors – biochemical, fluorescence, LYP catalytic domain, selectivity assay for LMPTP inhibitor project, dose response (AID 652006); format: functional; details: read-out: IC50_Mean
T4 sequence (Q9Y2R2 whole entry): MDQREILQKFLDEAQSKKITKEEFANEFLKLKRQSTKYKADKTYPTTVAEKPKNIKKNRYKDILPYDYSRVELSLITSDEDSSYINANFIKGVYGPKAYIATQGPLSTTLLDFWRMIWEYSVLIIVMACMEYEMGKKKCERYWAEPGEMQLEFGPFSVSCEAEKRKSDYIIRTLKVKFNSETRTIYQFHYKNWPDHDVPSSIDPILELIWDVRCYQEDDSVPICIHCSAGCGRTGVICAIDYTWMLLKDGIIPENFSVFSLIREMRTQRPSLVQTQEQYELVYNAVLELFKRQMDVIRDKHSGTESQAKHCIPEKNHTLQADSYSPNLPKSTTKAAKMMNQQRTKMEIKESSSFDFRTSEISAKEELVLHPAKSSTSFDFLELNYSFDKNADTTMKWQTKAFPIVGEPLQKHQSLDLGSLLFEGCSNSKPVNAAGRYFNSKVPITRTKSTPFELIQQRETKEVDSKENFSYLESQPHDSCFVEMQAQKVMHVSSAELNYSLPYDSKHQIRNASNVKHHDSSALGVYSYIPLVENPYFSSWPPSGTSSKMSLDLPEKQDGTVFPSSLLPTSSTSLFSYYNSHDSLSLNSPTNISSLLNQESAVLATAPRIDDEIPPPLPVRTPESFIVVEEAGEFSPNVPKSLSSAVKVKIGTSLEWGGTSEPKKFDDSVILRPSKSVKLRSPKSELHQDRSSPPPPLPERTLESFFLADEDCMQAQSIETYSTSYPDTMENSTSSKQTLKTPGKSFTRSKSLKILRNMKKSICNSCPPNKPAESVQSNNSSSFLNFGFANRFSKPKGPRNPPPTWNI

[7] = biological target: T5, Type-1 angiotensin II receptor (Homo sapiens, UniProt P30556); experiment: antagonism of angiotensin II type 1 receptor – cell-based, uHTS hits, selectivity assay for APJ receptor antagonist project, dose response (AID 463214); format: functional;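 also: antagonist potency against angiotensin II stimulated AT1 response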
T5 sequence (P30556 whole entry): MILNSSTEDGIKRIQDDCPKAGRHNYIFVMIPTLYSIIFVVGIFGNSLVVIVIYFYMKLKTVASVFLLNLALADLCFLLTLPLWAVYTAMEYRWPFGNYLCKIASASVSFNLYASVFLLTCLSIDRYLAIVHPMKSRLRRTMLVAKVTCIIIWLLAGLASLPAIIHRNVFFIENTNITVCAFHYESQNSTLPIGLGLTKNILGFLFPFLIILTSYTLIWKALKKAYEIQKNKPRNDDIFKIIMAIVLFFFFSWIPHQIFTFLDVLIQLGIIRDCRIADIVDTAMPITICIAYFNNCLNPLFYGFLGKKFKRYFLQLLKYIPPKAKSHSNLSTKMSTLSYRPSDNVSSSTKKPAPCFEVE

Beta-galactosidase = Beta-galactosidase (Escherichia coli, UniProt Q8VNN2); experiment: PubChem AID 485352; format: functional
Beta-galactosidase, sequence (Q8VNN2 whole entry): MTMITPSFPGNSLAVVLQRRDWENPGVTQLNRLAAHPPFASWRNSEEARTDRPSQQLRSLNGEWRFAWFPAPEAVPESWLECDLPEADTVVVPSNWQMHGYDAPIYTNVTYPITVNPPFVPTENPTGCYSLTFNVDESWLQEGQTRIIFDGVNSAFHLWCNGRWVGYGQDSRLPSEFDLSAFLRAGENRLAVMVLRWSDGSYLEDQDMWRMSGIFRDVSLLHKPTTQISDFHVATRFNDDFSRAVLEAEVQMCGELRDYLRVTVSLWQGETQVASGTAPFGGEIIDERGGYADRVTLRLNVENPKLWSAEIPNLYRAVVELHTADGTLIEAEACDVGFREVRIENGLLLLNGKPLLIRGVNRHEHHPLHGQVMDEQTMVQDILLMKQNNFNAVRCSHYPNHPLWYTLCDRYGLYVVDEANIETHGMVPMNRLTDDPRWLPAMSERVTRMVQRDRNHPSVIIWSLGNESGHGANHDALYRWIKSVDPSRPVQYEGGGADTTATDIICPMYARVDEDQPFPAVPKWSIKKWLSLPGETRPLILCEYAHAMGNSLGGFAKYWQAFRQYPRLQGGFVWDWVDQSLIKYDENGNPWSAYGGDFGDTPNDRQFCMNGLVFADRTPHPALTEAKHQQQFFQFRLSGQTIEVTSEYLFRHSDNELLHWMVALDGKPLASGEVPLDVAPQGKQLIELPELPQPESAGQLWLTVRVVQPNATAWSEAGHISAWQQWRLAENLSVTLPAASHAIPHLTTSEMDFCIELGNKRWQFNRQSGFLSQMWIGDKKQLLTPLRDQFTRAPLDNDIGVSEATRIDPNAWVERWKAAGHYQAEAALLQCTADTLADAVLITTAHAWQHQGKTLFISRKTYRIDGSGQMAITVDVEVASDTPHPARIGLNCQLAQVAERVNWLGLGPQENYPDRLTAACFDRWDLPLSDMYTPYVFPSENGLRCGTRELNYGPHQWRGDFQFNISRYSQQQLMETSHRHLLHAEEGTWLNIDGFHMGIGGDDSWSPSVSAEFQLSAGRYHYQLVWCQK

Interleukin-8 [8] = biological target: T6, Interleukin-8 (Homo sapiens, UniProt P10145); experiment: Dose Response confirmation of uHTS small molecule hits for cystic fibrosis induced NFkb Inhibitors in a TNFa-induced IL8 counterscreen.; format: functional; details: read-out: IC50_Mean
T6 sequence (P10145 whole entry): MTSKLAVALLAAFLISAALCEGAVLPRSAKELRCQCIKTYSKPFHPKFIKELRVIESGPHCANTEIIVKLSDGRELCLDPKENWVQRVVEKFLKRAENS

Interleukin-8 [9] = biological target: T6, Interleukin-8; experiment: Dose Response confirmation of uHTS small molecule hits for cystic fibrosis induced NFkb Inhibitors in a PAF-induced IL8 counterscreen.; format: functional; details: read-out: IC50_Mean
HEK293 = experiment: EBV LMP1 TES2 canonical NF-kB signalling blockers – cell-based, HEK293, luciferase, cherry-pick, dose response (AID 588343); format: functional, Homo sapiens; details: Homo sapiens, HEK293

How did the EC50 [1] turn out when `Cc1cc(OCC(=O)NCc2ccc(S(N)(=O)=O)cc2)c2c3c(c(=O)oc2c1)CCC3` was run?
Its EC50 is > 99 µM (inactive).

And the EC50 [2]?
The EC50 was > 99 µM (inactive).

Which IC50 [3] does the source give for `Cc1cc2oc(=O)cc(-c3cc4ccccc4o3)c2cc1O` here?
Its IC50 is 3.8 µM (active).

And the IC50 [4]?
The IC50 was 21.5 µM (inactive).

And the IC50 [5]?
The IC50 was 20.7 µM (inactive).

What about the IC50 [6] of the same molecule?
The IC50 was 29.1 µM (inactive).

How did the IC50 [7] turn out when `O=C(CCC(=O)OCC(=O)c1cccc([N+](=O)[O-])c1)Nc1cccc(Cl)c1Cl` was run?
The IC50 was 34.2 µM (not active).

And the EC50 (Beta-galactosidase)?
The EC50 was > 40 µM (inactive).

`COc1ccccc1[C@]1(C)ON(c2ccccc2C(F)(F)F)C1=O` was tested. Which IC50 (Interleukin-8 [8]) did it give?
Its IC50 is 24.3 µM (active).

And the IC50 (Interleukin-8 [9])?
The IC50 was 8 µM (active).

And the AC50 (HEK293)?
Its AC50 is 7.34 µM (active).
